According to US4405643A, “Treatment of acute pulmonary edema with arginine esters” (Italfarmaco S.p.A., priority 1979, dated 1983):
Where a name gives a salt, the structure may show the parent alone.

Key:
[1] = Protection against shock caused by endotoxins (lipopolysaccharide B from S. Enteritidis); type: in vivo, male rats of Wistar type; settings: parenteral, 1 h before endotoxin, after 24 h
Description: Endotoxin-induced shock has been produced according to the method reported by A. Bertelli and L. Donati, in the publication "The Influence of Some Enzymes and Enzymes Inhibitors in Shock", published in "SHOCK Biochemical,Pharmaceutical and Clinical Aspects"; A. Bertelli and N. Back Editors, Advances in Experimental Medicine and Biology; Volume 9, Plenum Press New York - London 1970, page 215. By way of comparison, there has been used a substance of well known therapeutical activity, specifically aprotinine, the commercial products marketed by Farbenfabriken Bayer, under the name "Trasylol". Male rats of Wistar type of 120 grams by weight ±10 have been used. The rats were previously stabilized for a period of ten days at a temperature of 21°±1° C. under a controlled diet and water "ad libitum". Twenty-four hours prior to the test, the animals were divided in groups of ten for the purpose of achieving randomization. Every single dose has been tried on six groups of animals.
Lipopolysaccharide B from S. Enteritidis (Difco Labs.) was used as the endotoxin. This substance was administered in the dose of 10 mg/kg by the endoperitoneal route, one hour after administration of the substance being administered by the parenteral route or in the form of a physiological solution in equal volume per kilogram to the animals being used as control.
The mortality in percent was determined in the animals being tested as compared with the controls after twenty-four hours.

[2] = Protection against pulmonary edema (adrenaline-induced acute edema of the lungs); type: in vivo, male albino rats of Wistar type; settings: parenteral, 15 min before adrenaline
Procedure: The method of A. M. Rothschild and A. Castania (Arch. Pharmacol., 295, 177 (1976)), has been used to develop the acute edema in the lungs and substances of known therapeutic activity have been used for comparison purpose.
For the test, male albino rats of Wistar type of average weight 250-350 grams, have been used for the test. The rats were stabilized for a period of ten days at a temperature of 21°±1° C., under conditions of controlled diet and water "ad libitum". Prior to the test, the animals were divided into groups of ten for the purpose of achieving good randomization. Each dose was tried on three groups of animals. The animals were anesthetized with pentobarbital in a dose of 30 mg/kg at the beginning of the test. After the animals were in complete narcosis, the following substances were administered by the parenteral route:
1. to the animals as controls, physiological saline solution in the amount of 1 ml/kg,
2. to the animals in the test, a solution of the substance being tested in physiological saline solution in the amount of 1 ml/kg in the doses reported hereinbelow in the table.
After a period of 15 minutes, for the purpose of determining the protective activity of the substances, adrenaline was administered in the amount of 16 γ/kg by the endovenous route and in physiological saline solution, for the purpose of causing acute edema.
After five minutes, the animals were killed by removal of the head, the lungs were removed and the weight of the lungs were determined. The results of the test are reported in Table 1 hereinbelow, together with the concentration of the substances and the relative inhibition of edema in percent.

[3] = tested on: Fibrin Degradation Products; test: Inhibition of hyperfibrinolysis caused by urokinase (F.D.P., staphylococcal clumping test); type: in vivo, Wistar rats; settings: parenteral, 30 min before urokinase 2500 U.I/rat
Procedure: The induction of hyperfibrinolysis state is caused by administration of urokinase. The determination of the inhibition is carried out by determination of the F.D.P. value, that is Fibrin Degradation Products, according to the procedure of J. Hawiger et al, J. Lab. Clin. Med. 75, 93 (1970), by means of the staphylococcal clumping test (Boehringer Mannheim GmbH test).
There are used Wistar rats of 300 grams ±10 by weight previously stabilized for a period of ten days at a temperature of 21°±1° C., under conditions of controlled diet and water "ad libitum". Twenty-four hours prior to the beginning of the experiment, the animals are divided in groups of ten for the purpose of achieving randomization. Each individual dose is tried on three groups of animals.
At the beginning of the test, zero time, the compounds being tested are administered through the parenteral route. In the case of the control animals, at the same time an equal volume of a physiological saline solution is administered except that some blood is removed by means of a cardiac puncture, for the purpose of determining the basal fibrinolytic activity. After 30 minutes, human urokinase (the composition marketed by Ukidan-Serono) is administered intravenously in the amount of 2500 U.I/rat. After an additional period of ten minutes, blood is removed by means of a cardiac puncture for the final determination of F.D.P., a determination which is expressed in […].

[4] = Protection against anaphylactic shock (horse serum); type: in vivo, male albino guinea pigs; settings: parenteral, with horse serum challenge, after 12 h
Procedure: The anaphylactic shock has been induced according to the method of S. M. Feinberg, M. Pharmacol. Exp. Therapeut., 99, 195 (1950). There have been used male albino guinea pigs of average weight, 350±20 grams previously stabilized for a period of ten days at a temperature of 21°±1° C., under conditions of controlled diet and water "ad libitum". Three days before the beginning of the experiment, the animals are divided in groups of ten for the purpose of achieving good randomization. Each single dose has been tried on three groups of animals.
The sensitization has been carried out by administration of 1 ml/guinea pig through the endovenous route of horse serum, (whole serum, not treated with preservatives) diluted 1:10 in physiological saline solution. After 14 days, the solutions of the substances being tested and the samples of physiological solutions for use with the controls are administered through the parenteral route. Simultaneously, 1 ml/guinea pig of horse serum, undiluted is administered, this substance being used as the agent which prompts the anaphylaxis. The percentage of mortality is determined after 12 hours.

Compound	% MORTALITY ([1]; dose 5 mg/kg)	% MORTALITY ([1]; dose 10 mg/kg)	% MORTALITY ([1]; dose 20 mg/kg)	% MORTALITY ([1]; dose 50 mg/kg)	% INHIBITION OF EDEMA ([2]; dose 1 mg/kg)	% INHIBITION OF EDEMA ([2]; dose 2.5 mg/kg)	% INHIBITION OF EDEMA ([2]; dose 5 mg/kg)	% INHIBITION OF EDEMA ([2]; dose 10 mg/kg)	% INHIBITION OF EDEMA ([2]; dose 20 mg/kg)	F.D.P. ([3]; dose 5 mg/kg)	F.D.P. ([3]; dose 10 mg/kg)	F.D.P. ([3]; dose 20 mg/kg)	% MORTALITY ([4]; dose 10 mg/kg)	% MORTALITY ([4]; dose 20 mg/kg)	% MORTALITY ([4]; dose 50 mg/kg)	other results
N=C(N)NCCC[C@H](N)C(=O)O [L-Arginine.2HCl]	69%	73%	71%	78%	7%	9%	11%	10.1%	13.1%	3.28 milliliters	2.96 milliliters	3.15 milliliters	78.5%	76.3%	80%	–
COC(=O)[C@H](N)CCCNC(=N)N [D-A.M., DArginine methyl ester hydrochloride]	71.2%	68.5%	69%	73%	16.8%	11.7%	15.4%	4.4%	6.4%	3.10 milliliters	3.03 milliliters	3.16 milliliters	78.8%	81.0%	76.3%	–
COC(=O)[C@@H](N)CCCNC(=N)N [L-A.M., LArginine methyl ester hydrochloride]	55.0%	50.0%	40.0%	28.0%	21.2%	27.4%	29.0%	55.7%	15.7%	0.48 milliliters	0.30 milliliters	0.25 milliliters	40.5%	27%	12.5%	–
CO [Methanol]	–	–	–	–	–	–	–	–	–	–	–	–	–	–	–	% MORTALITY ([1]; dose 2 mg/kg): 76%; % MORTALITY ([1]; dose 4 mg/kg): 72%; % MORTALITY ([1]; dose 8 mg/kg): 74%; % INHIBITION OF EDEMA ([2]; dose 0.08 mg/kg): 2.3%; % INHIBITION OF EDEMA ([2]; dose 0.8 mg/kg): 5%; % INHIBITION OF EDEMA ([2]; dose 2 mg/kg): 12%; % INHIBITION OF EDEMA ([2]; dose 4 mg/kg): 6%; % INHIBITION OF EDEMA ([2]; dose 8 mg/kg): 15%; % INHIBITION OF EDEMA ([2]; dose 16 mg/kg): 15%; F.D.P. ([3]; dose 2 mg/kg): 3.02 milliliters; F.D.P. ([3]; dose 4 mg/kg): 3.12 milliliters; F.D.P. ([3]; dose 8 mg/kg): 3.27 milliliters; % MORTALITY ([4]; dose 2 mg/kg): 76.6%; % MORTALITY ([4]; dose 4 mg/kg): 79.4%; % MORTALITY ([4]; dose 8 mg/kg): 81%
CCO [Ethanol]	–	–	–	–	–	–	–	–	–	–	–	–	–	–	–	% MORTALITY ([1]; dose 2 mg/kg): 67%; % MORTALITY ([1]; dose 4 mg/kg): 69%; % MORTALITY ([1]; dose 8 mg/kg): 73%; % INHIBITION OF EDEMA ([2]; dose 0.08 mg/kg): 7%; % INHIBITION OF EDEMA ([2]; dose 0.8 mg/kg): 12%; % INHIBITION OF EDEMA ([2]; dose 2 mg/kg): 15%; % INHIBITION OF EDEMA ([2]; dose 4 mg/kg): 14.7%; % INHIBITION OF EDEMA ([2]; dose 8 mg/kg): 16%; % INHIBITION OF EDEMA ([2]; dose 16 mg/kg): 15.9%; F.D.P. ([3]; dose 2 mg/kg): 3.06 milliliters; F.D.P. ([3]; dose 4 mg/kg): 2.95 milliliters; F.D.P. ([3]; dose 8 mg/kg): 3.11 milliliters; % MORTALITY ([4]; dose 2 mg/kg): 76.4%; % MORTALITY ([4]; dose 4 mg/kg): 74%; % MORTALITY ([4]; dose 8 mg/kg): 76.5%
Aprotinin	–	–	–	–	–	–	–	–	–	–	–	–	–	–	–	% MORTALITY ([1]; dose 1000 U.I.K./kg): 50.0%; % MORTALITY ([1]; dose 3000 U.I.K./kg): 65.0%; % MORTALITY ([1]; dose 10000 U.I.K./kg): 65.0%; % MORTALITY ([1]; dose 100000 U.I.K./kg): 93.3%; % INHIBITION OF EDEMA ([2]; dose 30 U.I.K./kg): 17.3%; % INHIBITION OF EDEMA ([2]; dose 100 U.I.K./kg): 36.5%; % INHIBITION OF EDEMA ([2]; dose 300 U.I.K./kg): 54.5%; % INHIBITION OF EDEMA ([2]; dose 1000 U.I.K./kg): 42.7%; F.D.P. ([3]; dose 1000 U.I.K./kg): 0.34 milliliters; F.D.P. ([3]; dose 3000 U.I.K./kg): 0.29 milliliters; F.D.P. ([3]; dose 10000 U.I.K./kg): 0.30 milliliters; % MORTALITY ([4]; dose 3000 U.I.K./kg): 40%; % MORTALITY ([4]; dose 10000 U.I.K./kg): 55%; % MORTALITY ([4]; dose 100000 U.I.K./kg): 80%
NC[C@H]1CC[C@H](C(=O)O)CC1 [Tranexamic Acid, trans4-(aminomethyl)cyclohexancarboxylic acid]	–	–	–	–	–	–	–	–	–	0.58 milliliters	0.39 milliliters	0.33 milliliters	–	–	–	–
CCOC(=O)[C@@H](N)CCCNC(=N)N [L-A.E., LArginine ethyl ester hydrochloride]	51.3%	48.2%	37.5%	25.0%	55.7%	47.9%	41.0%	38.9%	39.7%	0.50 milliliters	0.33 milliliters	0.27 milliliters	35%	23%	9.5%	% INHIBITION OF EDEMA ([2]; dose 0.1 mg/kg): 3.4%; % INHIBITION OF EDEMA ([2]; dose 0.25 mg/kg): 32.2%; % INHIBITION OF EDEMA ([2]; dose 0.5 mg/kg): 33.3%
CC(=O)Oc1ccccc1C(=O)O [Aspirin]	–	–	–	–	32.2%	36.9%	48.2%	54.3%	19.6%	–	–	–	–	–	–	–
